Reference: patent US20250326795A1, “USE OF D-ENANTIOMERIC PEPTIDE LIGANDS OF MONOMERIC TAU FOR THE THERAPY OF VARIOUS TAUOPATHIES” (PRIAVOID GMBH, priority 2021, published 2025)
Where two headings read alike, the source gives them in different places. Where a SMILES comes first, the peptide text is derived from it. [ ]: non-standard residue; d: D form.

Assays:
[1] = biological target: tau (Homo sapiens, UniProt P10636); assay: ThT assay of heparin-induced tau aggregation (with AFM analysis); format: biochemical; details: 15 μM tau, 8 μM heparin, 20 μM ThT; for effect on tau aggregation (ThT analysis): 15 μM peptide, 37° C., PBS pH 7.4 (FIG. 1)
Description: The effects of TF2D-1 and TF2D-5 on tau aggregation are shown. The ThT assay was performed by incubation of 15 μM tau with 8 μM heparin, 20 μM THT and 15 μM of either of the two peptides TF2D-1 or TF2D-5 at 37° C. in PBS pH 7.4. The sample without addition of the peptide is shown in red. The samples in which TF2D-1 or TF2D-5 was present are shown in green (TF2D-1) and blue (TF2D-5).
Shown are the effects of TF2D-5 on tau aggregation. The ThT assay was performed by incubation of 15 μM tau with 8 μM heparin, 20 μM ThT, 10% DMSO and different concentrations of TF2D-5 at 37° C. pH 7.0. The images next to the graph show the respective AFM measurements of each sample taken after 5 days. […] The image marked with C corresponds to the blue ThT curve without dilution, where TF2D-5 was added after 24 hours. All AFM measurements were performed by drying 1 μl on a mica, followed by two wash steps with 100 μl water and measurement on JPK Nanowizard3 with intermittent contact air and an OMCL AC160TS as cantilever.

[2] = Stability study in different simulated human body fluids; format: in vitro ADME; details: simulated gastric fluid pH 1, simulated intestinal fluid pH 6.8, human blood plasma, human liver microsomes (FIG. 6)
Description: Stability study of TF2D-5 and TF2D-5a in different simulated human body fluids. A) Stability of the peptides in simulated gastric fluid (SGF). The simulated gastric fluid consisted of 2 mg/ml sodium chloride, 3.2 mg/ml pepsin and 80 mM HCl; pH 1. B) Stability of TF2D-5 and TF2D-5a in simulated intestinal fluid (SIF). Simulated intestinal fluid consisted of 6.8 mg/ml potassium dihydrogen phosphate, 10 mg/ml pancreatic powder and 15.4 mM NaOH; pH 6.8. C) Stability of TF2D 5 and TF2D-5a in human blood plasma. Human K3EDTA blood plasma was obtained from BioTrend. D) Stability of TF2D-5 and TF2D-5a in human liver microsomes. Human liver microsomes consisted of 6 mg/ml protein (containing cytochrome P450 (CYP) enzymes), 75 mM sucrose, 1.3 mM NADPH, 3.3 mM D-glucose-6-phosphate, 0.2 u/ml D-glucose-6-phosphate dehydrogenase, 3.3 mM magnesium chloride and 100 mM potassium phosphate pH 7.4.

[3] = biological target: T1, monomeric full-length tau 441 (Homo sapiens, UniProt P10636); assay: SPR measurement of peptide binding to tau; details: for Kd: SPR T200 Biacore, peptide immobilised on CM5 chip, monomeric tau as analyte, TBS pH 7.4, 0.05% Tween 20, DTT, 1:1 model (FIG. 2b)
T1 construct: SPR measurement of TF2D-5 and TF2D-5a with full-length tau 441
Description: SPR measurements of TF2D-5 with the analyte tau. Seven concentrations of tau were prepared for the measurement, with the highest concentration at 100 nM and the lowest concentration at 1.56 nM. The running buffer contained TBS with 0.1% Tween. The Koff was determined to be approximately 6×10-5 s-1.
The tau concentration during the measurement varied from 3.125 nM to 25 nM. […] Tau was used at concentrations from 31.25 nM to 500 nM. SPR measurements of A and B were recorded on a T200 Biacore instrument, the respective peptide was immobilised on a CM5 chip from Cytiva, while monomeric tau served as the analyte. The tests were performed using TBS pH 7.4, 0.05% Tween […] DTT as running buffer. The fit calculation was performed using the internal evaluation software of the T200 Biacore. A 1:1 model was used for both fits.

[4] = biological target: T2, tau in full-length (Homo sapiens, UniProt P10636); assay: MST measurement of CF633-labelled peptides with tau in full-length; format: binding; details: read-out: KD (MST, Boltzmann fit)
T2 construct: MST measurement of TF2D-5, TF2D-5a and CP1 with tau in full-length
Description: MST measurement of TF2D-5, TF2D-5a and CP1 with tau in full-length. A) Boltzmann fit of TF2D-5 MST measurements with tau in full-length. TF2D-5 was labelled with CF633. The concentration of TF2D-5 was 500 nM, while the concentration of tau in full-length was between 2.5 μM and 0.2 pM. The measurement was performed in 1×PBS pH 7.4 with 150 mM NaCl. […] B) Boltzmann fit of TF2D-5a MST measurements with tau in full length. TF2D-5a was labelled with CF633. The concentration of TF2D-5a was 62.5 nM, while the concentration of tau in full-length varied between 300 nM and 0.5 nM. The measurement was performed in 0.1 M sodium phosphate buffer pH 7.4 with 75 mM sodium sulphate and 0.05% Tween 20. […] C) Average of the CP1-MST measurements with tau in full length. CP1 consists of the same amino acids as TF2D-5, but with a different distribution of the amino acids. CP1 was labelled with CF633. The concentration of CP1 was 62.5 nM, while the concentration of tau in full-length varied between […] and 0.2 pM. The measurement was performed in 0.1 M sodium phosphate buffer pH 7.4 with 75 mM sodium sulphate and 0.05% Tween 20. […] D) Calculated KDs of the individual peptides to tau in full-length at a glance. All experiments were repeated four times and the average of all measurements was calculated, which in turn was used to calculate the fits (Boltzmann).

[5] = tested on: tauk18 (LM)-YFP cells; assay: Inhibition of tau aggregation in cells seeded with sonified tau fibrils; format: cell-based; details: three-day treatment
Description: A) TF2D-5a and the D-peptide CP-1, as negative control, were tested for their ability to inhibit the tau aggregation in tauk18 (LM)-YFP cells. The scale bar corresponds to 50 μm and applies to b-d. The significance was calculated using a one-way ANOVA followed by Dunnett's test for multiple comparisons. Three asterisks represent a p-value of less than 0.001 and four asterisks a p-value of less than 0.0001.

tau, sequence (P10636 1-441 isoform P10636-8): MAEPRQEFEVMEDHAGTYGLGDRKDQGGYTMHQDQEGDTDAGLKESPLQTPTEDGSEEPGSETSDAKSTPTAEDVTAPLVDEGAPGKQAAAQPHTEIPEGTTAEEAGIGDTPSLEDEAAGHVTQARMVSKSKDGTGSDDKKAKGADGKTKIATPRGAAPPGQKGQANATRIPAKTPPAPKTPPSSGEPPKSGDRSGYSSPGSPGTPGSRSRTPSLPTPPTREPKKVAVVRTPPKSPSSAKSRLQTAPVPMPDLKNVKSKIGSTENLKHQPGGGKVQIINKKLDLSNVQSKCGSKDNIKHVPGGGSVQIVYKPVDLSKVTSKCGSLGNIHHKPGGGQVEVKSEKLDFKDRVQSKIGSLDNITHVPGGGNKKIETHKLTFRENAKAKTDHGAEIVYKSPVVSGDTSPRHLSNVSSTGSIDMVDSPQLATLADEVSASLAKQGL
T1 sequence (P10636 1-441 isoform P10636-8): as above
T2 sequence (P10636 1-441 isoform P10636-8): as above

Nemylwhwqypqhlrvg (H-[dN][dE][dM][dY][dL][dW][dH][dW][dQ][dY][dP][dQ][dH][dL][dR][dV]G-NH2; SMILES CSCC[C@@H](NC(=O)[C@@H](CCC(=O)O)NC(=O)[C@H](N)CC(N)=O)C(=O)N[C@H](Cc1ccc(O)cc1)C(=O)N[C@H](CC(C)C)C(=O)N[C@H](Cc1c[nH]c2ccccc12)C(=O)N[C@H](Cc1c[nH]cn1)C(=O)N[C@H](Cc1c[nH]c2ccccc12)C(=O)N[C@H](CCC(N)=O)C(=O)N[C@H](Cc1ccc(O)cc1)C(=O)N1CCC[C@@H]1C(=O)N[C@H](CCC(N)=O)C(=O)N[C@H](Cc1c[nH]cn1)C(=O)N[C@H](CC(C)C)C(=O)N[C@H](CCCNC(=N)N)C(=O)N[C@@H](C(=O)NCC(N)=O)C(C)C) [TF2D-1]
effect on tau aggregation (ThT analysis) [1]: inhibit tau aggregation

CC[C@@H](C)[C@@H](NC(=O)[C@@H](Cc1c[nH]cn1)NC(=O)CNC(=O)CNC(=O)[C@H]1CCCN1C(=O)[C@H](NC(=O)[C@@H](CCCCN)NC(=O)[C@@H](Cc1ccccc1)NC(=O)[C@@H](CC(C)C)NC(=O)[C@H](NC(=O)[C@@H](CCC(N)=O)NC(=O)[C@@H](Cc1ccc(O)cc1)NC(=O)CNC(=O)CNC(=O)[C@H](N)CC(=O)O)[C@H](C)CC)[C@H](C)CC)C(=O)N[C@H](Cc1c[nH]cn1)C(=O)N[C@H](CCCNC(=N)N)C(=O)N[C@H](CCCNC(=N)N)C(=O)N[C@H](CCCNC(=N)N)C(=O)N[C@H](CCCNC(=N)N)C(=O)N[C@H](CCCNC(=N)N)C(N)=O [TF2D-5a, dggyqilfkipgghihrrrrr] (H-[dD]GG[dY][dQ][dI][dL][dF][dK][dI][dP]GG[dH][dI][dH][dR][dR][dR][dR][dR]-NH2)
stability in different body fluids [2]: very stable
Kd [3]: 6.1 nM
Kd ([4]; 62.5 nM labelled peptide, tau 300 nM to 0.5 nM, 0.1 M sodium phosphate buffer pH 7.4, 75 mM sodium sulphate, 0.05% Tween 20 (FIG. 4B)): 11.7 nM
effect on number of cells with tau aggregates ([5]; cells seeded with sonified tau fibrils (FIG. 5)): concentration-dependent reduction in the number of cells with tau aggregates
concentration at which reduction in number of cells with tau aggregates was significant ([5]; further reduced at 25 μM and 50 μM, one-way ANOVA, Dunnett's test): 12.5 UM

CC[C@@H](C)[C@@H](NC(=O)[C@@H](Cc1c[nH]cn1)NC(=O)CNC(=O)CNC(=O)[C@H]1CCCN1C(=O)[C@H](NC(=O)[C@@H](CCCCN)NC(=O)[C@@H](Cc1ccccc1)NC(=O)[C@@H](CC(C)C)NC(=O)[C@H](NC(=O)[C@@H](CCC(N)=O)NC(=O)[C@@H](Cc1ccc(O)cc1)NC(=O)CNC(=O)CNC(=O)[C@H](N)CC(=O)O)[C@H](C)CC)[C@H](C)CC)C(=O)N[C@H](Cc1c[nH]cn1)C(N)=O [TF2D-5, dggyqilfkipgghih] (H-[dD]GG[dY][dQ][dI][dL][dF][dK][dI][dP]GG[dH][dI][dH]-NH2)
effect on tau aggregation (ThT analysis) [1]: inhibit tau aggregation
effect on tau aggregation (ThT and AFM analysis) ([1]; 10% DMSO, different concentrations of TF2D-5, 37° C., pH 7.0, AFM after 5 days (FIG. 3)): inhibits tau aggregation
stability in different body fluids [2]: very stable
Kd [3]: 1.3 nM
koff ([3]; SPR, analyte tau 1.56-100 nM, running buffer TBS with 0.1% Tween (FIG. 2a)): ~6e-05 s⁻¹
Kd ([4]; 500 nM labelled peptide, tau 2.5 μM to 0.2 pM, 1×PBS pH 7.4 with 150 mM NaCl (FIG. 4A)): 0.308 nM
